Measurements as given in publication PMC8878324, “Evaluation of New Antimicrobial Agents Based on tris(1H-Indol-3-yl)methylium Salts: Activity, Toxicity, Suppression of Experimental Sepsis in Mice” (Pharmaceuticals, 2022).
In brackets after ≈: the same amount, converted by molar mass.

Experiments:
Staphylococcus aureus 10 = assay: MIC by broth microdilution; format: cell-based
Description: (§1) We have tested the antimicrobial activity in vitro of over 100 tris(indolyl)methane derivatives against 16 strains of Gram-positive, Gram-negative bacteria and fungi including either sensitive or drug-resistant strains from ATCC, as well as resistant clinical isolates from the culture collection of the Laboratory for Control of Hospital Infections (Sechenov University, Moscow, Russia). The minimum inhibitory concentrations (MICs) were determined by the microdilution method in a cation-adjusted Müller–Hinton medium for bacteria and in a liquid culture medium RPMI 1640 with L-glutamine without sodium bicarbonate for fungi in accordance with the requirements of the Institute of Clinical and Laboratory Standards (CLSI/NCCLS). […] As a rule, their activity against Gram-negative bacteria was usually not that high. […] For comparison, the antimicrobial activity of prototype 4 is shown. The antibacterial antibiotic levofloxacin and the antifungal amphotericin B were used as reference drugs (Table 1).
The synthesis of compounds and the scheme of their preparation and purification, as well as physicochemical characteristics, were described earlier. To evaluate the biological activity in vitro, the compounds were dissolved in DMSO at a concentration of 2.0–6.4 mg/mL, followed by preparation of two-fold dilutions in the same solvent, if necessary. The solutions were further diluted in an aqueous medium for the final concentration of DMSO not to exceed 1%, and the concentration of the compounds ranged from 64.0 to 0.13 μg/mL. To study compounds in vivo, solutions for intravenous administration in 5% glucose solution were prepared. Solutions were sterilized by filtration through 0.22 µm filters (Millipore, Burlington, MA, USA).
Strains of Gram-positive, Gram-negative bacteria and fungi including sensitive or drug-resistant strains from ATCC, as well as resistant clinical isolates from the culture collection of the Laboratory for Control of Hospital Infections (Sechenov University, Moscow, Russia), were used. Clinical isolates of Gram-positive bacteria Staphylococcus aureus 5 (MRSA), Staphylococcus aureus 10, Staphylococcus aureus 100KC (MRSA), Staphylococcus epidermidis 533, Staphylococcus haemoliticus 585 and Enterococcus faecium 569, as well as collection cultures of Gram-positive bacteria Staphylococcus aureus ATCC 700699, Staphylococcus aureus ATCC 25923, Staphylococcus aureus ATCC 3798 and collection cultures of Gram-negative bacteria Escherichia coli ATCC 25922, Klebsiella pneumoniae ATCC 13883, Proteus vulgaris ATCC 13315, Salmonella cholerasuis ATCC 14028, Pseudomonas aeruginosa ATCC 27853 and collection cultures of the yeast Candida albicans ATCC 14053 and the fungi Aspergillus niger ATCC 16404 were used. To grow the microorganisms, we used Trypticase Soy Agar (TSA, Sigma-Aldrich Co., Burlington, MA, USA). Trypticase Soy Agar, BBL, was used for cultivation of Staphylococcus spp. and E. coli. For cultivation of Enterococcus spp. and P. aeruginosa we used a ready-made dry medium Columbia Agar Base, BBL. The media were sterilized by autoclaving at 121 °C for 15 min. Yeast culture C. albicans was grown on Sabouraud agar (peptone—10 g, glucose—40 g, agar—20 g, distilled water—1 L, pH 6.0), and filamentous fungi A. niger was grown on potato–glucose agar (potatoes—200 g, glucose—20 g, agar—15 g, distilled water—1 L, pH 5.5–6.0).
To determine the antibacterial effect, a liquid Müller–Hinton medium (Becton, Dickinson and Company, Cockeysville, MD, USA) was used; to determine the effect of compounds on fungi we used RPMI 1640 medium with L-glutamine, without sodium bicarbonate, which was prepared from a dry medium (ICN Biomedicals Inc., Costa Mesa, CA, USA) by dilution in distilled water, subsequent buffering with 0.165 M of morpholinepropanesulfonic acid (MOPS, Acros Organics B.V.B.A., Morris Plains, NJ, USA) and adjusting the pH of the medium to 7.0 by adding 1 N of NaOH solution. […]

[1] = tested on: yeast (Candida albicans) and fungi (Aspergillus niger); assay: Antifungal activity; format: cell-based; conditions: for antifungal activity: in words
Description: as §1
The minimum inhibitory concentrations (MIC) for Gram-positive and Gram-negative bacteria were determined by two-fold serial microdilution method in a cation-adjusted Müller–Hinton medium for bacteria and in a liquid culture medium RPMI 1640 with L-glutamine without sodium bicarbonate for fungi in accordance with the requirements of the Institute of Clinical and Laboratory Standards (CLSI/NCCLS). The antibacterial antibiotic levofloxacin and the antifungal antibiotic amphotericin B from Sigma-Aldrich were used as reference drugs.

[2] = Acute toxicity study, intravenous; format: in vivo; conditions: female, SHK, mouse, in vivo, mice, single intravenous; for MTD: read-out: MTD (LD10)
Description: (§2) In toxicological experiments with each compound, 72 to 108 animals were used and divided into 8 or 9 experimental groups (6 to 12 mice each), in which the animals received various doses of the tested compounds. There was also a control group of animals, which was injected with the corresponding solvent instead of the experimental compound, and a control group of intact animals. The prepared substances were injected into the animals intravenously (into the tail vein); the dose range was from 1.0 to 100 mg/kg.
(§3) The study was conducted on adult female SHK mice (18–20 g) obtained from the animal breeding unit of the FMBA (Scientific Center for Biomedical Technologies of the Federal Biomedical Agency, Moscow, Russia). The animals were randomly divided into groups (n = 6 for the study of acute toxicity, n = 10 (or 8) to study the efficacy of suppressing staphylococcal sepsis). The study of the effectiveness of drugs in the treatment of staphylococcal sepsis required the use of 110–175 mice for each drug, 10 animals per group. The animal study was approved by the Ethics of Animal Experimentation of Gause Institute of New Antibiotics (protocol No 13/2019).
(§4) To prepare solutions of preparations suitable for intravenous administration, dried test compounds with a purity of at least 99% were dissolved in a 5% glucose solution for intravenous administration at a concentration of 3.2 or 6.4 mg/mL. The solutions were sterilized by filtration through Sterivex 0.22 μm filters (Millipore, Burlington, MA, USA). Sterile solutions of drugs with a reduced concentration were then prepared, which allowed for the introduction ofvarious doses of drugs with the same volume (0.2 mL) of solutions. The test preparations were stored at a temperature no higher than 25 °C.
(§5) The study of acute toxicity of each drug was conducted on 72 mice (6 mice per group) using a solution of the test drug prepared in 5% glucose solution. The drug was injected into the tail vein of the animals (0.2 mL) using a syringe with a metal needle in a dose range of 1.0 mg/kg to 70 mg/kg.
(§6) From the first day after administration, the animals were under continuous observation. The number of dead animals and the time of their death were recorded daily. The body weight of the animals and their food consumption was recorded once a week, and the clinical signs of the animals’ health were assessed daily. The duration of observation of the animals was at least 30 days after the last death of the animal. Doses characterizing the toxicity of drugs were calculated by the Litchfield and Wilcoxon method using the StatPlus 2006 software AnalystSoft StatPlus—statistical analysis program, version 2006 (http://www.analystsoft.com/, accessed 11 January 2022). The mean and standard deviation were calculated for all data. The differences are defined as significant at p ≤ 0.05.

SHK mice = assay: Acute toxicity study, intravenous; format: in vivo; conditions: for LD16 / LD84 / LD100: single intravenous; for time of death of animals after administration: in words
Description: as §2, §3, §4, §5, §6

Structure (SMILES)	MIC (Staphylococcus aureus 10) [µg/mL]	antifungal activity [1]	LD50 [2] [mg/kg]	MTD [2] [mg/kg]	time of death of animals after drug administration (SHK mice; intravenous, lethal doses) [min]	LD16 (SHK mice) [mg/kg]	LD84 (SHK mice) [mg/kg]	LD100 (SHK mice) [mg/kg]	lethal dose causing the death of more than 50% of the animals (SHK mice; intravenous) [mg/kg]	time of death of animals after administration (SHK mice; intravenous)	MIC ([1]; Candida albicans and Aspergillus niger) [µg/mL]
OCCCCCn1cc([C+](c2cn(CCCCCO)c3ccccc23)c2cn(CCCCCO)c3ccccc23)c2ccccc21.[Cl-] [Compound 1, tris(1-(5-Hydroxypentyl)-1H-indol-3-yl) methylium chloride]	1	no antifungal activity at all	26.2	22.6	≤ 15	23.4	28.9	30.2			
CCCn1cc([C+](c2cn(CCC)c3ccccc23)c2cn(C3=C(N)C(=O)NC3=O)c3ccccc23)c2ccccc21.[Cl-] [Compound 2, (1-(4-Amino-2,5-dioxo-2,5-dihydro-1H-pyrrol-3-yl)-1H-indol-3-yl)bis(1-propyl-1H-indol-3-yl) methylium chloride]	0.5	low antifungal activity	41.8	34.1		35.8	47.7	50.7	35 to 50	in the first two hours after administration	
CCCn1cc([C+](c2cn(CCC)c3ccccc23)c2cn(C3=C(N(C)C)C(=O)NC3=O)c3ccccc23)c2ccccc21 [Compound 3, 1-(4-Dimethylamino-2,5-dioxo-2,5-dihydro-1H-pyrrol-3-yl) -1H-indol-3-yl) bis(1-propyl-1H-indol-3-yl) methylium chloride]	0.25		24.2	16.9		18.5	29.8	32.6	25 to 40	during the first day after administration	2
C[C@H]1COc2c(N3CCN(C)CC3)c(F)cc3c(=O)c(C(=O)O)cn1c23 [Levofloxacin, levofloxacin, reference compound]	0.13 (≈ 0.36 µM)										
